According to patent US20240182445A1 (ONO PHARMACEUTICAL CO., LTD., priority 2019, published 2024):

Biological target: T1, human TREK-1 (Homo sapiens, UniProt O95069)
T1 construct: expressed in transfected cells
T1 sequence (O95069 1-426): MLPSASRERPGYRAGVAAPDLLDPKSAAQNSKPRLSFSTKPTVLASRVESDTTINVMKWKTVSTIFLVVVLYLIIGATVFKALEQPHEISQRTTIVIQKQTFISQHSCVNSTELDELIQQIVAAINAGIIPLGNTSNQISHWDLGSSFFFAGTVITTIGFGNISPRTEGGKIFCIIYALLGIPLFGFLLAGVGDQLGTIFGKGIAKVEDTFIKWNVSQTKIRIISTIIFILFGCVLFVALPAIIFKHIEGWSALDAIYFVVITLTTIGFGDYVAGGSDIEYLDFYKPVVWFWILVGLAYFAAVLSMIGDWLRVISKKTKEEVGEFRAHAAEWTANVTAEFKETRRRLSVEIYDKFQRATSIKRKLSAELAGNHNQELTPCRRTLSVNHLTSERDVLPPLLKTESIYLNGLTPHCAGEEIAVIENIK
Assay: TREK-1 Thallium (Tl+) flux assay, Method 1
Format: cell-based
Conditions: TREK-1 Thallium (Tl+) flux assay, Method 1
How it was run: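 CHO-K1 cells stably expressing human TREK-1, loaded with Thallos dye, received compound or 0.3% DMSO vehicle for 10 min before thallium stimulus buffer. ΔRatio is fluorescence at 25 s after thallium addition over mean pre-addition fluorescence; % inhibition calculated from it.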

IC50 [µM]	Molecule
6.45	Cc1cc(OCc2ccccc2)ccc1NC(=O)c1c(Cl)cnn1CC1CN(C(=O)C2CC2)CCO1 (centres unmarked) [Compound 432, N-(4-(benzyloxy)-2-methylphenyl)-4-chloro-1-((4-(cyclopropanecarbonyl)morpholin-2-yl)methyl)-1H-pyrazole-5-carboxamide]

Same assay, conditions: TREK-1 Thallium (Tl+) flux assay; no *^12 (Method 2) mark on these rows

IC50 [µM]	Molecule
0.67	CC(C)(C)OC(=O)N1CC2(CC(n3ncc(Cl)c3C(=O)Nc3ncc(C#Cc4ccccc4)cc3F)C2)C1 [Compound 334, tert-butyl 6-(4-chloro-5-((3-fluoro-5-(phenylethynyl)pyridin-2-yl)carbamoyl)-1H-pyrazol-1-yl)-2-azaspiro[3.3]heptane-2-carboxylate]
0.91	Cc1cc(C#Cc2ccccc2)cnc1NC(=O)c1c(Cl)nn(C)c1-c1ccc2c(cnn2C)c1 [Compound 364, 3-chloro-1-methyl-5-(1-methyl-1H-indazol-5-yl)-N-(3-methyl-5-(phenylethynyl)pyridin-2-yl)-1H-pyrazole-4-carboxamide]
0.58	Cc1cc(C#Cc2ccccc2)cnc1NC(=O)c1c(Cl)cnn1CCC1CCN(C(=O)OC(C)(C)C)CC1 [Compound 308, tert-butyl 4-(2-(4-chloro-5-((3-methyl-5-(phenylethynyl)pyridin-2-yl)carbamoyl)-1H-pyrazol-1-yl)ethyl)piperidine-1-carboxylate]
0.85	Cc1cc(C#Cc2ccccc2)cnc1NC(=O)c1c(Cl)cnn1[C@@H]1CCN(C(=O)OC(C)(C)C)C1 [Compound 353, tert-butyl (R)-3-(4-chloro-5-((3-methyl-5-(phenylethynyl)pyridin-2-yl)carbamoyl)-1H-pyrazol-1-yl)pyrrolidine-1-carboxylate]
0.26	CC(=O)N1C[C@H]2C[C@H](n3ncc(Cl)c3C(=O)Nc3ncc(C#Cc4ccccc4)cc3C)C[C@H]2C1 [Compound 260, 1-[(3aR,5s,6aS)-2-acetyloctahydrocyclopenta[c]pyrrol-5-yl]-4-chloro-N-[3-methyl-5-(phenylethynyl)pyridin-2-yl]-1H-pyrazole-5-carboxamide]
0.31	CC(=O)N1CC[C@@H](n2ncc(Cl)c2C(=O)Nc2ncc(C#Cc3ccccc3)cc2C)C1 [Compound 202, (R)-1-(1-acetylpyrrolidin-3-yl)-4-chloro-N-(3-methyl-5-(phenylethynyl)pyridin-2-yl)-1H-pyrazole-5-carboxamide]
0.95	COCCn1ncc(Cl)c1C(=O)Nc1ncc(C#Cc2ccccc2)cc1C [Compound 369, 4-chloro-1-(2-methoxyethyl)-N-(3-methyl-5-(phenylethynyl)pyridin-2-yl)-1H-pyrazole-5-carboxamide]
0.58	Cc1cc(C#Cc2ccccc2)cnc1NC(=O)c1c(Cl)cnn1C1CCOC1 (centres unmarked) [Compound 306, 4-chloro-N-(3-methyl-5-(phenylethynyl)pyridin-2-yl)-1-(tetrahydrofuran-3-yl)-1H-pyrazole-5-carboxamide]
0.49	Cc1cc(C#Cc2ccccc2)cnc1NC(=O)c1c(Cl)cnn1CC1CCCOC1 (centres unmarked) [Compound 280, 4-chloro-N-(3-methyl-5-(phenylethynyl)pyridin-2-yl)-1-((tetrahydro-2H-pyran-3-yl)methyl)-1H-pyrazole-5-carboxamide]

Molecule	IC50 [µM]
tert-butyl 4-(4-chloro-5-((3-fluoro-5-(phenylethynyl)pyridin-2-yl)carbamoyl)-1H-pyrazol-1-yl)-2-methylpiperidine-1-caboxylate [Compound 324]	0.64

Same assay, conditions: TREK-1 Thallium (Tl+) flux assay; values without footnote *12 are Method 1

IC50 [µM]	Molecule
0.22	Cc1cc(C#Cc2ccccc2)cc(F)c1NC(=O)c1c(Cl)cnn1CC1(C#N)CC1 [Compound 127, 4-chloro-1-((1-cyanocyclopropyl)methyl)-N-(2-fluoro-6-methyl-4-(phenylethynyl)phenyl)-1H-pyrazole-5-carboxamide]
0.22	CC(=O)N1CC[C@H](n2ncc(Cl)c2C(=O)Nc2ncc(C#Cc3ccccc3)cc2C)C1 [Compound 128, (S)-1-(1-acetylpyrrolidin-3-yl)-4-chloro-N-(3-methyl-5-(phenylethynyl)pyridin-2-yl)-1H-pyrazole-5-carboxamide]
0.24	Cc1cc(C#Cc2ccccc2)cnc1NC(=O)c1c(Cl)cnn1C1CCN(C(=O)C2CC2)CC1 [Compound 149, 4-chloro-1-(1-(cyclopropanecarbonyl)piperidin-4-yl)-N-(3-methyl-5-(phenylethynyl)pyridin-2-yl)-1H-pyrazole-5-carboxamide]
0.14	Cc1cc(C#Cc2ccccc2)cnc1NC(=O)c1c(Cl)cnn1CC1CCN(C(=O)C2CC2)CC1 [Compound 52, 4-chloro-1-((1-(cyclopropanecarbonyl)piperidin-4-yl)methyl)-N-(3-methyl-5-(phenylethynyl)pyridin-2-yl)-1H-pyrazole-5-carboxamide]
0.2	CC(=O)N1C[C@H]2C[C@H](n3ncc(Cl)c3C(=O)Nc3ncc(C#Cc4cccs4)cc3C)C[C@H]2C1 [Compound 110, 1-[(3aR,5s,6aS)-2-acetyloctahydrocyclopenta[c]pyrrol-5-yl]-4-chloro-N-{3-methyl-5-[(thiophen-2-yl)ethynyl]pyridin-2-yl}-1H-pyrazole-5-carboxamide]
0.11	CC(=O)N1CCC(n2ncc(Cl)c2C(=O)Nc2c(F)cc(C#Cc3ccccc3)cc2F)CC1 [Compound 33, 1-(1-acetylpiperidin-4-yl)-4-chloro-N-(2,6-difluoro-4-(phenylethynyl)phenyl)-1H-pyrazole-5-carboxamide]
0.27	Cc1cc(C#Cc2cccc(F)c2)cnc1NC(=O)c1c(Cl)cnn1CC1CCN(C(=O)C2CC2)CC1 [Compound 174, 4-chloro-1-((1-(cyclopropanecarbonyl)piperidin-4-yl)methyl)-N-(5-((3-fluorophenyl)ethynyl)-3-methylpyridin-2-yl)-1H-pyrazole-5-carboxamide]
0.15	N#CCCCn1ncc(Cl)c1C(=O)Nc1ncc(C#Cc2ccccc2)cc1F [Compound 59, 4-chloro-1-(3-cyanopropyl)-N-(3-fluoro-5-(phenylethynyl)pyridin-2-yl)-1H-pyrazole-5-carboxamide]
0.16	O=C(Nc1ncc(C#Cc2ccccc2)cc1F)c1c(Cl)cnn1CC1CCOCC1 [Compound 68, 4-chloro-N-(3-fluoro-5-(phenylethynyl)pyridin-2-yl)-1-((tetrahydro-2H-pyran-4-yl)methyl)-1H-pyrazole-5-carboxamide]
0.21	CC(C)C(=O)N[C@H]1C[C@@H](n2ncc(Cl)c2C(=O)Nc2ncc(C#Cc3ccccc3)cc2F)C1 [Compound 124, 4-chloro-N-(3-fluoro-5-(phenylethynyl)pyridin-2-yl)-1-(cis-3-isobutyramidocyclobutyl)-1H-pyrazole-5-carboxamide]
0.18	CC(=O)N1CCC(Cn2ncc(Cl)c2C(=O)Nc2ncc(C#Cc3ccccc3)cc2C)C(F)(F)C1 (centres unmarked) [Compound 98, 1-((1-acetyl-3,3-difluoropiperidin-4-yl)methyl)-4-chloro-N-(3-methyl-5-(phenylethynyl)pyridin-2-yl)-1H-pyrazole-5-carboxamide]

Same assay, conditions: read-out: Tl^+ Assay % inhibition at 30 uM (Minus value indicates activation of TREK-1); at 30 uM; CHO-K1 cells stably expressing human TREK-1; minus = activation

inhibition at 30 µM [%]	Molecule
-163	CC(=O)N1CCC(CCn2cc(Cl)c(C(=O)Nc3ncc(C#Cc4cccc(F)c4)cc3C)n2)CC1 [Compound 439, 1-(2-(1-acetylpiperidin-4-yl)ethyl)-4-chloro-N-(5-((3-fluorophenyl)ethynyl)-3-methylpyridin-2-yl)-1H-pyrazol-3-carboxamide]
